# Experimental data taken from the supplement of paper PMC10307832.
# Assays:
# Test in all cases: relative viability (nuclei count vs DMSO), 5 days (fraction); higher = more cells survive
# [1] = system: UMC-11
# Method in brief: (§1)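 Nuclei were stained with Hoechst during a one-step fixation (final 0.05% Triton X-100, 1% formaldehyde, 1 ug/ml Hoechst) carried out 5 days after dosing, then counted on 4× images. The cells, lung cancer lines in 1536-well plates, had been dosed by pin tool the day after seeding with one drug alone or a fixed anchor-drug dose plus five library-drug doses (not always all listed) in √10 steps. Relative viability is the nuclei count in treated wells divided by that in vehicle wells, and each value is the median of duplicate plates.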
# [2] = system: SK-LU-1
# Method in brief: as §1
# [3] = system: NCI-H460
# Method in brief: as §1
# [4] = system: NCI-H1944
# Method in brief: as §1
# [5] = system: NCI-H1666
# Method in brief: as §1
# [6] = system: HCC-78
# Method in brief: as §1
# [7] = system: NCI-H1792
# Method in brief: as §1
# [8] = system: HCC-366
# Method in brief: as §1
# [9] = system: LC-2-ad
# Method in brief: as §1
# [10] = system: HOP-62
# Method in brief: as §1
# [11] = system: A-427
# Method in brief: as §1
# [12] = system: NCI-H358
# Method in brief: as §1
# [13] = system: EPLC-272H
# Method in brief: as §1
# [14] = system: LU99A
# Method in brief: as §1
# [15] = system: LXF-289
# Method in brief: as §1
# [16] = system: NCI-H2170
# Method in brief: as §1
# [17] = system: NCI-H2009
# Method in brief: as §1
# [18] = system: COR-L 105
# Method in brief: as §1
# [19] = system: NCI-H1915
# Method in brief: as §1
# [20] = system: NCI-H2085
# Method in brief: as §1
structure (smiles),measurement,setting,value
CCN(CC)CCCCNc1ncc2cc(-c3cc(OC)cc(OC)c3)c(NC(=O)NC(C)(C)C)nc2n1 + C[C@@H](Oc1cc(-c2cnn(C3CCNCC3)c2)cnc1N)c1c(Cl)ccc(F)c1Cl [Crizotinib] (partner 1 µM),relative viability,[1]; first compound 0.01 µM,0.691
same,relative viability,[1]; first compound 0.03162 µM,0.459
same,relative viability,[1]; first compound 0.1 µM,0.636
same,relative viability,[1]; first compound 0.3162 µM,0.805
same,relative viability,[1]; first compound 1 µM,0.554
same,relative viability,[2]; first compound 0.01 µM,0.908
same,relative viability,[2]; first compound 0.03162 µM,1.02
same,relative viability,[2]; first compound 0.1 µM,0.901
same,relative viability,[2]; first compound 0.3162 µM,1
same,relative viability,[2]; first compound 1 µM,0.641
same,relative viability,[3]; first compound 0.01 µM,1.15
same,relative viability,[3]; first compound 0.03162 µM,0.934
same,relative viability,[3]; first compound 0.1 µM,1.36
same,relative viability,[3]; first compound 0.3162 µM,1.07
same,relative viability,[3]; first compound 1 µM,0.797
same,relative viability,[4]; first compound 0.01 µM,1.29
same,relative viability,[4]; first compound 0.03162 µM,1.14
same,relative viability,[4]; first compound 0.1 µM,1.12
same,relative viability,[4]; first compound 0.3162 µM,1.35
same,relative viability,[4]; first compound 1 µM,1.09
same,relative viability,[5]; first compound 0.01 µM,1.17
same,relative viability,[5]; first compound 0.03162 µM,0.985
same,relative viability,[5]; first compound 0.1 µM,0.895
same,relative viability,[5]; first compound 0.3162 µM,1.02
same,relative viability,[5]; first compound 1 µM,1.09
same,relative viability,[6]; first compound 0.03162 µM,0.318
same,relative viability,[6]; first compound 0.1 µM,0.347
same,relative viability,[6]; first compound 0.3162 µM,0.368
same,relative viability,[6]; first compound 1 µM,0.299
same,relative viability,[7]; first compound 0.01 µM,1.07
same,relative viability,[7]; first compound 0.03162 µM,1.02
same,relative viability,[7]; first compound 0.1 µM,1.33
same,relative viability,[7]; first compound 0.3162 µM,1.41
same,relative viability,[7]; first compound 1 µM,0.541
same,relative viability,[8]; first compound 0.01 µM,0.632
same,relative viability,[8]; first compound 0.03162 µM,0.924
same,relative viability,[8]; first compound 0.1 µM,0.947
same,relative viability,[8]; first compound 0.3162 µM,0.741
same,relative viability,[8]; first compound 1 µM,0.512
same,relative viability,[9]; first compound 0.01 µM,0.834
same,relative viability,[9]; first compound 0.03162 µM,0.503
same,relative viability,[9]; first compound 0.1 µM,0.49
same,relative viability,[9]; first compound 0.3162 µM,0.488
same,relative viability,[9]; first compound 1 µM,0.39
same,relative viability,[10]; first compound 0.01 µM,0.967
same,relative viability,[10]; first compound 0.03162 µM,1.14
same,relative viability,[10]; first compound 0.1 µM,0.903
same,relative viability,[10]; first compound 0.3162 µM,1.08
same,relative viability,[10]; first compound 1 µM,1.08
same,relative viability,[11]; first compound 0.01 µM,0.886
same,relative viability,[11]; first compound 0.03162 µM,0.812
same,relative viability,[11]; first compound 0.1 µM,0.875
same,relative viability,[11]; first compound 0.3162 µM,0.909
same,relative viability,[11]; first compound 1 µM,0.727
same,relative viability,[12]; first compound 0.01 µM,0.639
same,relative viability,[12]; first compound 0.03162 µM,0.54
same,relative viability,[12]; first compound 0.1 µM,0.728
same,relative viability,[12]; first compound 0.3162 µM,0.671
same,relative viability,[12]; first compound 1 µM,0.469
same,relative viability,[13]; first compound 0.01 µM,1.23
same,relative viability,[13]; first compound 0.1 µM,1.13
same,relative viability,[13]; first compound 0.3162 µM,1.04
same,relative viability,[13]; first compound 1 µM,0.917
same,relative viability,[14]; first compound 0.01 µM,0.547
same,relative viability,[14]; first compound 0.03162 µM,0.63
same,relative viability,[14]; first compound 0.1 µM,0.616
same,relative viability,[14]; first compound 0.3162 µM,0.583
same,relative viability,[14]; first compound 1 µM,0.484
same,relative viability,[15]; first compound 0.01 µM,0.836
same,relative viability,[15]; first compound 0.03162 µM,0.817
same,relative viability,[15]; first compound 0.1 µM,0.916
same,relative viability,[15]; first compound 0.3162 µM,0.824
same,relative viability,[15]; first compound 1 µM,0.696
same,relative viability,[16]; first compound 0.01 µM,1.35
same,relative viability,[16]; first compound 0.03162 µM,1.34
same,relative viability,[16]; first compound 0.1 µM,1.32
same,relative viability,[16]; first compound 0.3162 µM,1.27
same,relative viability,[16]; first compound 1 µM,1.16
same,relative viability,[17]; first compound 0.01 µM,1.1
same,relative viability,[17]; first compound 0.03162 µM,1.08
same,relative viability,[17]; first compound 0.1 µM,1.13
same,relative viability,[17]; first compound 0.3162 µM,1.11
same,relative viability,[17]; first compound 1 µM,0.953
same,relative viability,[18]; first compound 0.01 µM,0.795
same,relative viability,[18]; first compound 0.03162 µM,0.796
same,relative viability,[18]; first compound 0.1 µM,0.887
same,relative viability,[18]; first compound 0.3162 µM,0.777
same,relative viability,[18]; first compound 1 µM,0.658
same,relative viability,[19]; first compound 0.01 µM,1.1
same,relative viability,[19]; first compound 0.03162 µM,0.926
same,relative viability,[19]; first compound 0.1 µM,0.943
same,relative viability,[19]; first compound 0.3162 µM,1.03
same,relative viability,[19]; first compound 1 µM,0.935
same,relative viability,[20]; first compound 0.01 µM,0.983
same,relative viability,[20]; first compound 0.03162 µM,0.917
same,relative viability,[20]; first compound 0.1 µM,0.943
same,relative viability,[20]; first compound 0.3162 µM,0.895
same,relative viability,[20]; first compound 1 µM,0.817
